Series [1] can be described thus: EGF biological activity, test not specified. The source says:
C. […] EGF-D represents the 52-amino acid sequence obtained by removing the C-terminal arg, while EGF-B corresponds to EGF-D wherein the C-terminal arg-leu has been removed. EGF-C appears to be EGF-D in which Met21 has been oxidized, while EGF-A appears to be EGF-B with Met21 oxidized. EGF-D is reported to be stable when stored as a lyophilized powder.
EGF may also be altered by adding an N-terminal extension. EGF-flag (.phi.EGF) derivatives have the additional sequence […], which permits rapid purification of peptides by affinity chromatography on anti-flag MAb columns (International Biotechnology Inc.).

The subject of series [2] is Human foreskin fibroblasts. Put plainly: Mitogenicity: 3H-thymidine incorporation. It is filed as cell-based. As for the experimental part:
Mitogenicity was assayed substantially following the method described by D. J. Knauer et al, J Biol Chem (1984) 259:5623-31.
Human foreskin fibroblasts were obtained and frozen at the thirteenth passage. Thawed cells are trypsinized, pelleted, and resuspended in a medium containing DMEM, 5% FBS, 1 mM sodium pyruvate, 300 μg/mL L-glutamine, 100 U/mL penicillin, and 100 μg/mL streptomycin. The cells are counted using a hemocytometer and 0.4% trypan blue. The cell concentration is adjusted to 1×10^-5 cells/mL using the same medium, and dispensed onto microtiter plates (100 μL/well). The plates are incubated for 5 days in a tissue culture incubator.
EGF muteins prepared in Example 1 and native sequence EGF are dissolved to make 100 μg/mL solutions. These solutions are used to make serial dilutions of 20, 10, 5, 2.5, 1.25, 0.625, 0.3125, 0.15625, 0.078125, 0.0390625, 0.0195, and 0.00975 ng/mL. Ten μL of each dilution is added to a microtiter plate well, and the plates returned to the incubator and incubated at 37° C. for 18 hours. The cells are then pulsed with ^3 H-thymidine (^3 H-T), by adding 10 μL of ^3 H-T (100 μCi/mL) to each well, and incubating for 24 hours. The ^3 H-T is then expelled, and the plates rinsed twice with PBS. To fix the cells, the plates are then incubated twice with 5% trichloroacetic acid (TCA) for 15 minutes at room temperature, followed by incubation twice with 100% MeOH. The plates are then air-dried.
The well contents are then solubilized using 0.3 N NaOH (50 μL/well) for 30 minutes, and transferred to scintillation vials. Scintillation fluid (Ready-Solv EP, 4 mL) is then added to each vial, and the vials counted for 1 min with a 0-1,000 (^3 H) window in a Beckman LS3801 counter.
A general note: Dividing cells build labelled thymidine or BrdU into new DNA.

The target of series [3] is T1, EGF receptor on fixed A431 cells (Homo sapiens, UniProt P00533).
T1 construct: Confluent A43 1 cells were fixed in 96-well microtiter plates using 0.05% formaldehyde; endogenous in cells; host or cells: A431 cells, formaldehyde-fixed
Put plainly: Receptor affinity: binding to fixed A431 cells. The following applies: 1 nM, 2 hr at 37° C. As for the experimental part:
Confluent A43 1 cells were fixed in 96-well microtiter plates using 0.05% formaldehyde for 10 min at room temperature, then washed 3× with 200 μL PBS with 0.1% bovine serum albumin (BSA).
The wells were then washed 3× with 200 μL of PBS/0.1% BSA, detached, and counted in a gamma counter.

The conditions of series [4]: forms isolated from recombinant yeast culture; cited from earlier work.
The conditions of series [5]: stored as a lyophilized powder; cited from earlier work.

Bounds are passed on as bounds.

Turning to “.phi.EGF-E12: flag-extended EGF mutein with Glu for Gly12 (NSDSECPLSHDEYCLHDGVCMYIEALDKYACNCVVGYIGERCQYRDLKWWELR; not fully specified; Epidermal growth factor N-terminal FLAG extension; UniProt P01133 971-1023, looked up, variant G12E)”, the “biological activity of EGF-flag derivatives” value in series [1] is “biologically active”. As to “.phi.EGF-Q12: flag-extended EGF mutein with Gln at position 12 (NSDSECPLSHDQYCLHDGVCMYIEALDKYACNCVVGYIGERCQYRDLKWWELR; not fully specified; Epidermal growth factor N-terminal FLAG extension; UniProt P01133 971-1023, looked up, variant G12Q)”, the Mitogenicity in series [2] is reported as 286 percentage of control (EGF). Besides, the Affinity in series [3] is on record as 154 percentage of control (EGF). On to “.phi.EGF-W13: flag-extended EGF mutein with Trp for Tyr13 (NSDSECPLSHDGWCLHDGVCMYIEALDKYACNCVVGYIGERCQYRDLKWWELR; not fully specified; Epidermal growth factor N-terminal FLAG extension; UniProt P01133 971-1023, looked up, variant Y13W)”, for which the Mitogenicity in series [2] is listed as 216 percentage of control (EGF). Also, the Affinity in series [3] is listed as 73 percentage of control (EGF). Besides, in series [1], the “biological activity of EGF-flag derivatives” value is on record as “biologically active”.

On to “EFG: wild-type human epidermal growth factor, 53-amino acid protein; control of Table 1 [reference compound]”, for which the Mitogenicity in series [2] is given as 100 percentage of control (EGF). With “EGF-A15: EGF mutein with Ala at position 15”, in series [2], the Mitogenicity is recorded as 3 percentage of control (EGF).

As for “EGF-A41: EGF mutein with Ala at position 41”, the Mitogenicity in series [2] was < 0.4 percentage of control (EGF). The same measure, in the same setting: in the case of “EGF-A43: EGF mutein with Ala at position 43 (Glu43 replaced)” it was 63 percentage of control (EGF). Consider “EGF-B: EGF-D wherein the C-terminal arg-leu has been removed (NSDSECPLSHDGYCLHDGVCMYIEALDKYACNCVVGYIGERCQYRDLKWWE; not fully specified; Epidermal growth factor; UniProt P01133 971-1021, looked up, fragment)”, for which the EGF activity result in series [4] is “full EGF activity”. Consider “EGF-D: 52-amino acid sequence obtained by removing the C-terminal arg of EGF (NSDSECPLSHDGYCLHDGVCMYIEALDKYACNCVVGYIGERCQYRDLKWWEL; not fully specified; Epidermal growth factor; UniProt P01133 971-1022, looked up, fragment)”, for which, in series [5], the stability on storage entry is listed as “stable”. In addition, in series [4], the EGF activity entry was “full EGF activity”.

Values taken from patent US5547935A (Chiron Corporation, priority 1994, dated 1996).
